This experiment has as its target T1, recombinant human EP-2 receptor (Homo sapiens, UniProt P43116).
T1 construct: stably transfected with full length cDNA encoding human Prostaglandin E2; expressed in transfected cells
As to the kind of experiment: In vitro antagonist potency against recombinant human prostaglandin E2 (EP-2) receptor in CHO cells (cAMP). The note with it: CHO cells expressing recombinant human EP-2 receptor, stimulated with PGE2 5 nM; cAMP readout; Ki from IC50 by Cheng-Prusoff; read-out: EP2 Ki. It counts as cell-based. As for the experimental part: 1.0 Measurement of In Vitro Antagonist Potency (IC50) of Compounds Against Recombinant Human Prostaglandin E2 Receptor in CHO Cells.
The prostaglandin E2 (EP-2) receptor is Gs coupled and agonism of the receptor by PGE2 results in activation of intracellular adenylate cyclase enzymes that synthesise the second messenger signalling molecule, adenosine 3′,5′-cyclic monophosphate (cAMP). CHO cells expressing the recombinant human EP-2 receptor are stimulated with PGE2 (5 nM) equivalent to approximately […] values to give the maximal cAMP signal. Decreases in cAMP levels following treatment of stimulated recombinant EP-2 cells with potential antagonist compounds were measured and potency (IC50) calculated as follows.
A Chinese hamster ovary (CHO) cell line stably transfected with full length cDNA encoding human Prostaglandin E2 was established using standard molecular biology methods. Test compounds were dissolved in dimethyl sulphoxide (DMSO) at 4 mM. 11 point half log unit increment dilution series of test compound were prepared in DMSO then diluted 1 in 40 in a buffer comprised of phosphate buffered saline (PBS) and 0.05% pluronic F-127 surfactant. Freshly cultured cells at 80-90% confluence were harvested and re-suspended in 90% growth media/10% DMSO. The cells were frozen using a planar freezer and stored in frozen aliquots in cryovials in liquid nitrogen until the day of the experiment. A vial of cells was defrosted in a 37° C. water bath for 2 min, then transferred to 10 ml of Dulbecco's Modified Eagle's Medium (DMEM). The cells were then centrifuged for 5 min at 1000 g and the pellet re-suspended at 1,000,000 cells/ml in DMEM. 5,000 cells (5 ul) were added to 5 ul of the compound dilution series in a 384 well assay plate and pre-incubated for 30 min at 37° C. 5 ul of agonist (15 nM PGE2 in PBS to give 5 nM FAC) was added and plates further incubated for 90 min at 37° C. The relative cAMP concentration in each well was then measured using a β-galactosidase enzyme fragment complementation method purchased in kit form as the Discoverx cAMP II kit from GE Healthcare, UK. […] Sigmoidal curves were fitted to plots of log10 inhibitor concentration vs. percent effect. IC50 estimates were determined as the concentration of test compound giving an effect half way between the bottom and top asymptotes of the sigmoidal dose response curve. Each experiment included an IC50 determination for the literature compound as a standard to track assay consistency and allow fair comparison between values obtained in different experiments. The EC50 of PGE2 is used in combination with the ligand concentration in the assay to determine Ki values for antagonist dose responses using the Cheng-Prusoff equation. Consequently an agonist dose response curve is carried out for each experiment using the same incubation as the antagonist plate.
T1 sequence (P43116 whole entry): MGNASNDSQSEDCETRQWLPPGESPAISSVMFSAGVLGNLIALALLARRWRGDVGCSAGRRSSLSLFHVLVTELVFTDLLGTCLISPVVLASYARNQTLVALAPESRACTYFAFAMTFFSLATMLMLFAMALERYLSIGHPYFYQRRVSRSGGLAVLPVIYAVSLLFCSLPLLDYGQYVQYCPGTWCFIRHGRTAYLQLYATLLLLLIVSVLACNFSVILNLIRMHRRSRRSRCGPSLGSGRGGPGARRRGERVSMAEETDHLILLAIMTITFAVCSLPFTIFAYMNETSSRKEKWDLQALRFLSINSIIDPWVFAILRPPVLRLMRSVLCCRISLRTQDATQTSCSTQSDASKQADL
As for `O=C(c1ccccc1)N1CC(Cn2nnc(-c3ccccc3)n2)(C(=O)O)C1` [Example 1, 1-Benzoyl-3-[(5-phenyl-2H-tetrazol-2-yl)methyl]azetidine-3-carboxylic acid], the Ki (in general, the dissociation constant of the complex between target and ligand, obtained from inhibition or displacement) is 225 nM.

As for `O=C(c1ccc(Cl)cc1)N1CC(Cn2nnc(-c3cccc(Cl)c3)n2)(C(=O)O)C1` [Example 2], the Ki was determined as 3.51 nM.

Regarding `O=C(c1ccc(Cl)cc1)N1CC(Cn2nnc(-c3cccc(F)c3)n2)(C(=O)O)C1` [Example 3], the Ki came to 11.1 nM.

On to `Cc1ccc(-c2nnn(CC3(C(=O)O)CN(C(=O)c4ccc(Cl)cc4)C3)n2)cc1` [Example 4], for which the Ki amounted to 1.45 nM.

For the compound `O=C(c1ccc(Cl)cc1)N1CC(Cn2nnc(-c3ccc(C(F)(F)F)cc3)n2)(C(=O)O)C1` [Example 5], the inhibition constant Ki was 1.64 nM.

For the compound `O=C(c1ccc(Cl)cc1)N1CC(Cn2nnc(-c3ccc(Cl)cc3)n2)(C(=O)O)C1` [Example 6], the Ki was 2.42 nM.

`CCC(=O)Nc1ccc(-c2nnn(CC3(C(=O)O)CN(C(=O)c4ccc(Cl)cc4)C3)n2)cc1` [Example 7]: the inhibition constant (Ki) stood at 0.816 nM.

Consider `Cc1ccc(-c2nnn(CC3(C(=O)O)CN(C(=O)c4ccc(Cl)cc4)C3)n2)cc1Cl` [Example 8], for which the Ki was 0.423 nM.

For the compound `O=C(c1ccc(Cl)cc1)N1CC(Cn2nnc(-c3ccc(Cl)c(Cl)c3)n2)(C(=O)O)C1` [Example 9], the Ki was found to be 0.864 nM.

On to `O=C(c1ccc(Cl)cc1)N1CC(Cn2nnc(-c3cc(Cl)cc(Cl)c3)n2)(C(=O)O)C1` [Example 10], for which the Ki came to 1.02 nM.

In the case of `Cc1ccccc1-c1nnn(CC2(C(=O)O)CN(C(=O)c3ccc(F)cc3)C2)n1` [Example 12], the Ki is 77.8 nM.

`O=C(c1ccc(F)cc1)N1CC(Cn2nnc(-c3ccccc3F)n2)(C(=O)O)C1` [Example 13]: the Ki was determined as 87.3 nM.

Take `O=C(c1ccc(F)cc1)N1CC(Cn2nnc(-c3ccccc3Cl)n2)(C(=O)O)C1` [Example 14]: the Ki is 220 nM.

Regarding `O=C(c1ccc(F)cc1)N1CC(Cn2nnc(-c3ccccc3C(F)(F)F)n2)(C(=O)O)C1` [Example 15], the Ki is 733 nM.

For `COc1ccccc1-c1nnn(CC2(C(=O)O)CN(C(=O)c3ccc(F)cc3)C2)n1` [Example 16], the Ki worked out at 442 nM.

As for `Cc1cccc(-c2nnn(CC3(C(=O)O)CN(C(=O)c4ccc(F)cc4)C3)n2)c1` [Example 17], the Ki amounted to 14.8 nM.

In the case of `COc1cccc(-c2nnn(CC3(C(=O)O)CN(C(=O)c4ccc(F)cc4)C3)n2)c1` [Example 20], the Ki worked out at 11.6 nM.

Turning to `O=C(c1ccc(F)cc1)N1CC(Cn2nnc(-c3cccc(Oc4ccccc4)c3)n2)(C(=O)O)C1` [Example 21], the Ki worked out at 141 nM.

Take `CCc1ccc(-c2nnn(CC3(C(=O)O)CN(C(=O)c4ccc(F)cc4)C3)n2)cc1` [Example 23]: the Ki amounted to 1.37 nM.

Take `O=C(c1ccc(F)cc1)N1CC(Cn2nnc(-c3ccc(Cl)cc3)n2)(C(=O)O)C1` [Example 25]: the Ki came to 20 nM.

Take `O=C(c1ccc(F)cc1)N1CC(Cn2nnc(-c3ccc(F)cc3)n2)(C(=O)O)C1` [Example 26]: the Ki stood at 74.8 nM.

In the case of `COc1ccc(-c2nnn(CC3(C(=O)O)CN(C(=O)c4ccc(F)cc4)C3)n2)cc1` [Example 28], the Ki worked out at 10.8 nM.

Consider `O=C(c1ccc(F)cc1)N1CC(Cn2nnc(-c3ccc(OC(F)F)cc3)n2)(C(=O)O)C1` [Example 30], for which the Ki was 14.7 nM.

Consider `CCC(=O)Nc1ccc(-c2nnn(CC3(C(=O)O)CN(C(=O)c4ccc(F)cc4)C3)n2)cc1` [Example 32], for which the Ki turned out to be 10.3 nM.

For `O=C(c1ccc(F)cc1)N1CC(Cn2nnc(-c3ccc(Cl)cc3Cl)n2)(C(=O)O)C1` [Example 38], the Ki was found to be 27 nM.

Take `O=C(c1ccc(F)cc1)N1CC(Cn2nnc(-c3cccc(Cl)c3Cl)n2)(C(=O)O)C1` [Example 39]: the Ki turned out to be 39.9 nM.

Consider `O=C(c1ccc(F)cc1)N1CC(Cn2nnc(-c3ccc(F)c(F)c3)n2)(C(=O)O)C1` [Example 41], for which the Ki was 66.8 nM.

Turning to `O=C(c1ccc(F)cc1)N1CC(Cn2nnc(-c3c(F)cccc3F)n2)(C(=O)O)C1` [Example 42], the Ki was found to be 262 nM.

Regarding `O=C(c1ccc(F)cc1)N1CC(Cn2nnc(-c3cc(F)cc(Cl)c3)n2)(C(=O)O)C1` [Example 43], the inhibitory constant (Ki) was 13.7 nM.

As for `O=C(c1ccc(F)cc1)N1CC(Cn2nnc(-c3cc(C(F)(F)F)cc(C(F)(F)F)c3)n2)(C(=O)O)C1` [Example 44], the Ki worked out at 133 nM.

With `COc1cc(OC)cc(C(=O)N2CC(Cn3nnc(-c4ccc(C(F)(F)F)cc4)n3)(C(=O)O)C2)c1` [Example 46, 1-(3,5-Dimethoxybenzoyl)-3-({5-[4-(trifluoromethyl)phenyl]-2H-tetrazol-2-yl}methyl)azetidine-3-carboxylic acid], the Ki amounted to 44.9 nM.

As for `O=C(c1ccccc1)N1CC(Cn2nnc(-c3cccc(F)c3)n2)(C(=O)O)C1` [Example 47], the Ki worked out at 152 nM.

For the compound `O=C(c1ccccc1)N1CC(Cn2nnc(-c3c(F)cccc3F)n2)(C(=O)O)C1` [Example 48], the Ki stood at 325 nM.

As to `COc1ccc(-c2nnn(CC3(C(=O)O)CN(C(=O)c4ccccc4)C3)n2)cc1OC` [Example 49], the Ki was 41.9 nM.

Take `O=C(c1ccccc1)N1CC(Cn2nnc(-c3ccc(Cl)s3)n2)(C(=O)O)C1` [Example 50]: the Ki stood at 61.4 nM.

With `CCOc1ccccc1C(=O)N1CC(Cn2nnc(-c3ccccc3)n2)(C(=O)O)C1` [Example 51], the Ki is 538 nM.

Take `CCOc1ccccc1C(=O)N1CC(Cn2nnc(-c3cccc(F)c3)n2)(C(=O)O)C1` [Example 52]: the Ki turned out to be 446 nM.

For `CCOc1ccccc1C(=O)N1CC(Cn2nnc(-c3ccc(C(F)(F)F)cc3)n2)(C(=O)O)C1` [Example 53], the Ki came out at 32.5 nM.

Consider `CCOc1ccccc1C(=O)N1CC(Cn2nnc(Cc3c(F)cccc3Cl)n2)(C(=O)O)C1` [Example 54], for which the Ki is 783 nM.

With `COc1ccc(-c2nnn(CC3(C(=O)O)CN(C(=O)c4cccc(F)c4)C3)n2)cc1OC` [Example 55], the Ki was 453 nM.

In the case of `COc1cccc(C(=O)N2CC(Cn3nnc(-c4ccc(C(C)(C)C)cc4)n3)(C(=O)O)C2)c1` [Example 56], the Ki came out at 176 nM.

`COc1cccc(C(=O)N2CC(Cn3nnc(Cc4c(F)cccc4Cl)n3)(C(=O)O)C2)c1` [Example 57]: the Ki turned out to be 959 nM.

For the compound `COc1cccc(C(=O)N2CC(Cn3nnc(-c4ccc(OC)c(OC)c4)n3)(C(=O)O)C2)c1` [Example 58], the Ki is 76.3 nM.

On to `Cc1ccc(C(=O)N2CC(Cn3nnc(-c4c(F)cccc4F)n3)(C(=O)O)C2)cc1` [Example 59], for which the Ki worked out at 57.9 nM.

As for `O=C(c1ccc(Cl)cc1)N1CC(Cn2nnc(Cc3ccc(C(F)(F)F)cc3)n2)(C(=O)O)C1` [Example 60], the Ki turned out to be 645 nM.

`O=C(c1ccc(Cl)cc1)N1CC(Cn2nnc(-c3c(F)cccc3F)n2)(C(=O)O)C1` [Example 61]: the Ki was found to be 7.47 nM.

Turning to `COc1ccc(C(=O)N2CC(Cn3nnc(-c4ccc(OC)c(OC)c4)n3)(C(=O)O)C2)cc1` [Example 62], the Ki amounted to 25.2 nM.

Take `O=C(c1c(F)cccc1F)N1CC(Cn2nnc(Cc3ccc(C(F)(F)F)cc3)n2)(C(=O)O)C1` [Example 63]: the Ki worked out at 1960 nM.

On to `COc1ccc(-c2nnn(CC3(C(=O)O)CN(C(=O)c4c(F)cccc4F)C3)n2)cc1OC` [Example 64], for which the Ki is 230 nM.

For `COc1cc(OC)cc(C(=O)N2CC(Cn3nnc(-c4c(F)cccc4F)n3)(C(=O)O)C2)c1` [Example 65], the Ki is 230 nM.

In the case of `COc1cc(OC)cc(C(=O)N2CC(Cn3nnc(-c4ccc(OC)c(OC)c4)n3)(C(=O)O)C2)c1` [Example 66], the Ki amounted to 222 nM.

As to `O=C(Nc1cccc(Cl)c1Cl)N1CC(Cn2nnc(-c3ccccc3)n2)(C(=O)O)C1` [Example 67, 1-{[(2,3-dichlorophenyl)amino]carbonyl}-3-[(5-phenyl-2H-tetrazol-2-yl)methyl]azetidine-3-carboxylic acid], the Ki is 130 nM.

In the case of `COc1cccc(NC(=O)N2CC(Cn3nnc(-c4cccc(F)c4)n3)(C(=O)O)C2)c1` [Example 68, 3-{[5-(3-fluorophenyl)-2H-tetrazol-2-yl]methyl}-1-{[(3-methoxyphenyl)amino]carbonyl}azetidine-3-carboxylic acid], the Ki was 303 nM.

Take `CCc1ccccc1NC(=O)N1CC(Cn2nnc(-c3cccc(F)c3)n2)(C(=O)O)C1` [Example 69]: the Ki was determined as 440 nM.
